Entries after “also recorded” stand apart in the source; their conditions may differ.
Columns and labels:
[1] = test system: CHO GFP cells; assay: ERK MAP kinase assay in control CHO GFP cells; type: cell-based, Chinese hamster; settings: serum starved CHO GFP cells, LPC 0.01 μM to 10 μM, 10 minutes
Experimental: (§1) Further exploration of the cellular response to LPC was undertaken in Chinese hamster ovary (CHO) cells. Stable lines of G2A expressing CHO cells were derived by infection with retroviruses encoding G2A.GFP (MSCV G2A.GFP). We examined ERK MAP kinase activity in control CHO GFP and CHO G2A.GFP cells in response to varying doses of LPC (0.01 μM to 10 μM).
(§2) CHO GFP or CHO G2A.GFP cells were serum starved for 18 hours prior to treatment with LPC for 10 minutes at 37° C. Western blotting was performed to detect activated p44/42 ERK MAP kinase using a specific phospho-ERK antibody (Santa Cruz Biotechnology,).

[2] = test system: MCF 10A cells; assay: Calcium assay ([Ca2+]i, Fura-2) in parental or pEXV3 GFP transfected MCF 10A cells (control); type: cell-based, human; settings: SPC or LPC up to 10 μM, LPA 1 μM, PAF 0.1 μM, ATP 20 μM
Experimental: MCF 10A cells were cultured in specialised glass-bottom dishes (Bioptech, Inc., Butler, Pa.) and loaded with Fura-2/AM ([…]; Molecular Probes) at 37° C. for 30 minutes in HEPES buffered saline (pH 7.4) containing 125 mM NaCl, 5 mM KCl, 1.2 mM MgSO4, 11 mM glucose, 1.8 mM CaCl2, 25 mM HEPES, 0.2% BSA. Loaded cells were washed, placed in HEPES buffeted saline without BSA, and incubated for 30 minutes at ambient temperature ensure dye hydrolysis by cytosolic esterases. Using a dual-wavelength spectrofluorometer (RFK-6002, Photon Technology Int'l, So. Brunswick, N.J.) coupled to an inverted fluorescence microscope (Olympus, IX-70, Lake Success, N.Y.), GFP-positive cells were identified using an excitation wavelength of 488 nm, a dichroic 505 nm long-pass and an emitter bandpass of 535 nm (Chroma Technology, Brattleboro, Vt.). [Ca^2+], measurements were performed on individual GFP-positive cells at excitation wavelengths of 340 nm and 380 nm, and an emission wavelength of 510 nm. Prior to data acquisition, background fluorescence (areas without cells) was measured and automatically subtracted from subsequent measurements. Agonists were diluted in HEPES buffered saline and solution changes accomplished by rapidly aspirating the buffer and replacing it with HEPES buffered saline containing the specific agonist. Fura-2 fluorescence signals (340 nm, 380 nm and the 340/380 ratio) originating from individual GFP-positive cells were continuously monitored at a sampling frequency of 25 Hz and collected using a software package from Photon Technology International (Felix™). Conversion of the 340 nm/380 nm ratio value into [Ca^2+]i was estimated by comparing the cellular fluorescence ratio with ratios acquired using Fura-2 (free acid) in buffers containing known Ca^2+ concentrations. [Ca^2+]i was then calculated as described by Grynkiewicz, et al (Grynkiewicz, G, et al, J Biol Chem, 260: pp3440-3450, 1985). All assays were performed in assay buffers containing 1 mM EGTA to exclude measurement of calcium influx.
To address whether G2A is a lysophospholipid receptor, we examined signalling events in cells ectopically expressing G2A as functional correlates of receptor activation. […] [Ca^2+]i measurements were performed in MCF 10A cells transfected with plasmids encoding green fluorescent protein (GFP) tagged G2A (pEXV3 G2A.GFP) (Kabarowski, J H S, et al, PNAS, 97: pp12109-12114, 2000) or GFP as described (Yan Xu and Derek S. Damron, Methods in Molecular Medicine, 39: Ovarian Cancer: Methods and Protocols, pp611-619, 2000). […] Similarly, dose-dependent responses of G2A.GFP transfected cells to SPC were observed, with an EC50 of approximately 0.4 μM (FIG. 4B). […] Responses to these agonists were not affected by G2A.GFP expression (FIG. 4A, middle and lower panels).

[3] = target: T1, G2A (Mus musculus, UniProt Q9Z282); assay: ERK MAP kinase assay (phospho-ERK Western blot) in CHO G2A.GFP cells; type: cell-based; settings: serum starved CHO G2A.GFP cells, LPC 0.01 μM to 10 μM, 10 minutes
T1 construct: expressed in transfected cells; host or cells: MCF 10A (human breast epithelial cells, no endogenous G2A), plasmid pEXV3 G2A.GFP
T1 sequence (Q9Z282 1-382): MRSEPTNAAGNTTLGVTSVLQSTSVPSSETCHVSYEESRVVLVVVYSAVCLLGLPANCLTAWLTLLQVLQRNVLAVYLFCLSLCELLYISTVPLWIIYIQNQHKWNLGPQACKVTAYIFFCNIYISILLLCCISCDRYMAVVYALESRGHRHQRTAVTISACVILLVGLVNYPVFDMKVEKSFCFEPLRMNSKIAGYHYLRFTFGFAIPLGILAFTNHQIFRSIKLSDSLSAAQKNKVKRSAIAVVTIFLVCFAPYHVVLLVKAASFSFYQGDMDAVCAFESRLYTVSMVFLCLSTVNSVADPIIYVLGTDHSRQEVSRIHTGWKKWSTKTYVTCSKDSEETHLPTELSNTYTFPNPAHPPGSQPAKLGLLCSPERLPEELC
Experimental: as §1, §2

[4] = target: T2, G2A.GFP fusion receptor (Mus musculus, UniProt Q9Z282); assay: Internalisation of G2A.GFP in HEK 293 G2A.GFP cells (confocal microscopy); type: cell-based; settings: 2 hours, serum starved HEK 293 G2A.GFP cells
T2 construct: expressed in transfected cells; host or cells: HEK 293 cells infected with amphotropic MSCV G2A.GFP retrovirus
T2 sequence (Q9Z282 1-382): T1 sequence (Q9Z282 1-382)
Experimental: Agonist dependent receptor internalisation is a feature of GPCRs. G2A.GFP expressing HEK 293 cells (HEK 293 G2A.GFP) were generated by infection with amphotropic MSCV G2A.GFP retroviruses. In serum starved HEK 293 G2A.GFP cells, G2A.GFP is expressed predominantly on the plasma membrane. LPC (0.1 μM), as well as SPC (1 μM), induced internalisation of G2A.GFP in over 90% of cells (FIG. 6). Neither LPA, S-1-P or PAF induced G2A internalisation, which is consistent with LPC acting as a specific ligand for G2A. Treatment of HEK 293 G2A.GFP cells with SPC at low concentrations (0.1 μM) induced receptor internalisation in fewer cells (<50%).
HEK 293 G2A.GFP cells were seeded onto glass coverslips and subsequently serum starved for 16-24 hours prior to treatment with lipids. Two hours following lipid treatment, coverslips were washed with cold PBS and fixed with PBS/4% paraformaldehyde. Subcellular localisation of G2A.GFP was visualised under a confocal fluorescence microscope with a 60× oil immersion lens.

Substance: lysophosphatidylcholine [LPC]
- ERK MAP kinase activity in control cells [1]: did not respond
- [Ca2+]i response in control cells [2]: Neither parental or pEXV3 GFP transfected cells responded
- ERK MAP kinase activity [3]: dose-dependent increases; also recorded: activates ERK MAP kinase
- induction of G2A internalisation [4]: internalisation of G2A.GFP induced by LPC

From US6709830B2, “Methods for modulating the activation of a lymphocyte expressed G protein coupled receptor involved in cell proliferation, autoimmunity and inflammation” (The Regents of the University of California, priority 1997, dated 2004)
